Measurements reported in ChEMBL document CHEMBL1201862, “PubChem BioAssay data set” (2004).
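Tested at 5 concentrations; 48 h exposure; 96-well plates; endpoints linearly interpolated, else capped at highest concentration. The concentration for 50% growth inhibition is given as GI50.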 Calls of active or inactive are those of the source. Rule as the data show it: active = GI50 up to about 1.1 µM and inactive = higher.

Legend:
Assay in all cases: NCI-60 cell line screen, 48 h
ACHN = test system: ACHN
HL-60 = test system: HL-60
HOP-92 = test system: HOP-92
KM12 = test system: KM12
MDA-MB-435 = test system: MDA-MB-435
Malme-3M = test system: Malme-3M
NCI-H226 = test system: NCI-H226
NCI-H460 = test system: NCI-H460
OVCAR-3 = test system: OVCAR-3
SF-268 = test system: SF-268
SF-295 = test system: SF-295
SK-MEL-5 = test system: SK-MEL-5
SK-OV-3 = test system: SK-OV-3
SNB-19 = test system: SNB-19
SNB-75 = test system: SNB-75
U-251 = test system: U-251
UO-31 = test system: UO-31
SF-539 = test system: SF-539
SR = test system: SR

Measured: GI50

O=C(O)c1cc(O)nc(S)n1
inactive: ACHN > 100 µM | HL-60 > 100 µM | HOP-92 > 100 µM | KM12 > 100 µM | MDA-MB-435 > 100 µM | Malme-3M > 100 µM | NCI-H226 > 100 µM | NCI-H460 > 100 µM | OVCAR-3 > 100 µM | SF-268 > 100 µM | SF-295 > 100 µM | SK-MEL-5 > 100 µM | SK-OV-3 > 100 µM | SNB-19 > 100 µM | SNB-75 94.2 µM | U-251 > 100 µM | UO-31 > 100 µM

CC(=O)OC1=c2ccccc2=C(O)C2C1C=NN2C(C)=O (stereo not drawn)
inactive: ACHN > 100 µM | HL-60 > 100 µM | HOP-92 > 100 µM | KM12 > 100 µM | MDA-MB-435 > 100 µM | Malme-3M 44.3 µM | NCI-H226 > 100 µM | NCI-H460 > 100 µM | OVCAR-3 > 100 µM | SF-268 > 100 µM | SF-295 > 100 µM | SF-539 > 100 µM | SK-MEL-5 > 100 µM | SK-OV-3 > 100 µM | SNB-19 > 100 µM | SNB-75 36.7 µM | U-251 > 100 µM | UO-31 > 100 µM

COC1=CC2(C=CC1=O)c1cc(OC)c(OC)cc1CCN2C(=O)c1ccccc1 (stereo not drawn)
inactive: ACHN > 100 µM | HOP-92 > 100 µM | KM12 > 100 µM | Malme-3M > 100 µM | NCI-H226 > 100 µM | OVCAR-3 > 100 µM | SF-295 > 100 µM | SF-539 > 100 µM | SK-MEL-5 > 100 µM | SK-OV-3 > 100 µM | SNB-19 > 100 µM | SNB-75 > 100 µM | U-251 > 100 µM | UO-31 97.9 µM

Cc1ccc(C2c3c(n(C)c(=O)n(C)c3=O)OC(N(C)C)(N(C)C)C2(F)F)cc1 (stereo not drawn)
inactive: ACHN > 100 µM | HOP-92 > 100 µM | KM12 > 100 µM | MDA-MB-435 > 100 µM | NCI-H226 > 100 µM | NCI-H460 > 100 µM | OVCAR-3 > 100 µM | SF-268 > 100 µM | SF-295 > 100 µM | SK-MEL-5 > 100 µM | SK-OV-3 > 100 µM | SNB-19 > 100 µM | SNB-75 > 100 µM | U-251 > 100 µM | UO-31 > 100 µM

COc1c(-c2nc3ccc(N4CCN(C)CC4)nc3[nH]2)cc(OC)c2c1nc(CO)n2C
inactive: ACHN > 100 µM | HL-60 81.7 µM | HOP-92 > 100 µM | KM12 > 100 µM | MDA-MB-435 > 100 µM | Malme-3M > 100 µM | NCI-H226 > 100 µM | NCI-H460 > 100 µM | OVCAR-3 > 100 µM | SF-268 > 100 µM | SF-295 > 100 µM | SF-539 53.3 µM | SK-OV-3 > 100 µM | SNB-19 > 100 µM | SNB-75 31.1 µM | U-251 > 100 µM | UO-31 > 100 µM

CC(C)[Si](Oc1ccc(CC2N(C(=O)c3ccc([N+](=O)[O-])cc3)C(CCc3ccccc3)CC2(C)C=O)cc1)(C(C)C)C(C)C (stereo not drawn)
inactive: ACHN > 100 µM | HOP-92 13.9 µM | Malme-3M > 100 µM | NCI-H226 15.5 µM | OVCAR-3 > 100 µM | SF-268 19.4 µM | SF-295 7.05 µM | SF-539 6.22 µM | SK-OV-3 27.7 µM | SNB-19 15.6 µM | SR 2.58 µM | U-251 20.5 µM | UO-31 > 100 µM

CC(=O)N1CN2C(=O)CCC2c2cc(C)ccc21 (stereo not drawn)
inactive: ACHN > 100 µM | HL-60 > 100 µM | HOP-92 > 100 µM | KM12 > 100 µM | MDA-MB-435 > 100 µM | Malme-3M > 100 µM | NCI-H226 > 100 µM | NCI-H460 > 100 µM | OVCAR-3 > 100 µM | SF-268 > 100 µM | SF-295 > 100 µM | SF-539 > 100 µM | SK-MEL-5 > 100 µM | SK-OV-3 > 100 µM | SNB-19 > 100 µM | SNB-75 > 100 µM | U-251 > 100 µM | UO-31 > 100 µM

CCCCCC/C=C/C#CCCCCCCCC(=O)O
inactive: ACHN > 100 µM | HL-60 > 100 µM | HOP-92 > 100 µM | KM12 > 100 µM | MDA-MB-435 > 100 µM | Malme-3M > 100 µM | NCI-H226 > 100 µM | NCI-H460 > 100 µM | OVCAR-3 > 100 µM | SF-268 > 100 µM | SF-295 > 100 µM | SF-539 > 100 µM | SK-MEL-5 > 100 µM | SK-OV-3 > 100 µM | SNB-19 > 100 µM | SNB-75 > 100 µM | U-251 > 100 µM

CN(C(=O)C1CCCCCC1=O)c1ccccc1Cl (stereo not drawn)
inactive: ACHN > 100 µM | HOP-92 > 100 µM | KM12 > 100 µM | MDA-MB-435 > 100 µM | Malme-3M > 100 µM | NCI-H226 > 100 µM | NCI-H460 > 100 µM | OVCAR-3 > 100 µM | SF-268 > 100 µM | SF-295 > 100 µM | SF-539 > 100 µM | SK-MEL-5 > 100 µM | SK-OV-3 > 100 µM | SNB-19 > 100 µM | SNB-75 > 100 µM | U-251 > 100 µM | UO-31 > 100 µM

Cc1cn(CCCC2=NCCCN2)c(=O)[nH]c1=O
inactive: ACHN > 100 µM | HOP-92 > 100 µM | KM12 > 100 µM | MDA-MB-435 > 100 µM | Malme-3M > 100 µM | NCI-H226 > 100 µM | NCI-H460 > 100 µM | OVCAR-3 > 100 µM | SF-268 > 100 µM | SF-295 > 100 µM | SF-539 > 100 µM | SK-MEL-5 > 100 µM | SK-OV-3 > 100 µM | SNB-19 > 100 µM | SNB-75 > 100 µM | U-251 > 100 µM | UO-31 > 100 µM

Cc1ccccc1OC(C)C(=O)NN1C(=O)CC(=O)N(c2ccccc2)C1=S (stereo not drawn)
inactive: ACHN 53.8 µM | HL-60 10.4 µM | HOP-92 37.3 µM | KM12 75.5 µM | MDA-MB-435 73.1 µM | Malme-3M > 100 µM | NCI-H226 41.9 µM | NCI-H460 45.8 µM | OVCAR-3 53.2 µM | SF-268 76.6 µM | SF-295 46.3 µM | SF-539 > 100 µM | SK-MEL-5 60.3 µM | SK-OV-3 > 100 µM | SNB-19 24 µM | SNB-75 48.3 µM | U-251 62.7 µM | UO-31 35.8 µM

OCCCNc1[nH]cnc2nncc1-2
inactive: ACHN > 100 µM | HL-60 > 100 µM | HOP-92 > 100 µM | KM12 > 100 µM | MDA-MB-435 > 100 µM | Malme-3M > 100 µM | NCI-H226 > 100 µM | NCI-H460 > 100 µM | OVCAR-3 > 100 µM | SF-268 > 100 µM | SF-295 > 100 µM | SF-539 41.1 µM | SK-MEL-5 > 100 µM | SK-OV-3 > 100 µM | SNB-19 > 100 µM | SNB-75 > 100 µM | U-251 > 100 µM | UO-31 > 100 µM

NC(=S)/N=C(/c1nc2ccc(Cl)cc2nc1O)C(O)c1ccccc1Cl (stereo not drawn)
inactive: ACHN > 100 µM | HL-60 > 100 µM | HOP-92 > 100 µM | KM12 > 100 µM | Malme-3M > 100 µM | NCI-H226 > 100 µM | NCI-H460 > 100 µM | SF-268 > 100 µM | SF-295 > 100 µM | SF-539 > 100 µM | SK-OV-3 > 100 µM | SNB-75 > 100 µM | U-251 > 100 µM | UO-31 > 100 µM

NC(=S)Nc1ccc(S(=O)(=O)Nc2ccc(S(N)(=O)=O)cc2)cc1
inactive: ACHN > 100 µM | HL-60 > 100 µM | HOP-92 > 100 µM | KM12 > 100 µM | MDA-MB-435 > 100 µM | Malme-3M > 100 µM | NCI-H226 > 100 µM | NCI-H460 > 100 µM | OVCAR-3 > 100 µM | SF-295 > 100 µM | SK-MEL-5 > 100 µM | SNB-19 > 100 µM | U-251 > 100 µM | UO-31 > 100 µM

Cc1c(-c2ccccc2)n[nH]c1NC1(C)C(=O)N(/N=C/c2ccccc2)N=C1c1ccccc1 (stereo not drawn)
inactive: ACHN 24.7 µM | HL-60 46.6 µM | HOP-92 > 100 µM | KM12 38.6 µM | MDA-MB-435 52.7 µM | Malme-3M > 100 µM | NCI-H226 > 100 µM | NCI-H460 > 62.5 µM | OVCAR-3 > 31.6 µM | SF-268 > 100 µM | SF-295 68.2 µM | SF-539 > 100 µM | SK-MEL-5 7.96 µM | SK-OV-3 > 100 µM | SNB-19 > 100 µM | SNB-75 > 100 µM | U-251 > 33.6 µM | UO-31 > 100 µM

COc1ccc(/N=C2\S/C(=N\C(=N\c3ccccc3)SCc3ccccc3)N(c3ccccc3)\C2=N/c2ccc(OC)cc2)cc1
inactive: HL-60 > 100 µM | HOP-92 > 100 µM | KM12 > 100 µM | Malme-3M > 100 µM | NCI-H226 > 100 µM | SK-MEL-5 > 100 µM | SNB-19 > 100 µM | SNB-75 > 100 µM | SR > 100 µM | UO-31 > 100 µM

C=C1[C@@H]([C@@]2(C)C=CC(=O)C(C)(C)[C@@H]2CC(=O)OC)CC[C@@]2(C)[C@H](c3ccoc3)OC(=O)[C@H]3O[C@]132 [ANDIROBIN]
inactive: ACHN > 100 µM | HL-60 62.8 µM | HOP-92 > 100 µM | KM12 > 100 µM | MDA-MB-435 > 100 µM | Malme-3M > 100 µM | NCI-H226 > 100 µM | NCI-H460 > 100 µM | OVCAR-3 > 100 µM | SF-268 > 100 µM | SF-295 87.5 µM | SF-539 > 100 µM | SK-MEL-5 68.2 µM | SK-OV-3 > 100 µM | SNB-19 > 100 µM | SNB-75 46.2 µM | U-251 > 100 µM | UO-31 73.8 µM
